Experimental findings from patent US8778966B2, “Quinolinone derivatives as PARP and tank inhibitors” (Janssen Pharmaceutica, NV, priority 2007, dated 2014) are described below.

The test system of one test is PC-3 cells. Nature of the test: Antiproliferative activity, Alamar Blue assay, PC-3 cells. To be noted: for IC50: Homo sapiens, PC-3, PC3 cells, read-out: PC3 antiproliferative activity pIC50 (converted); for PC3 antiproliferative activity pIC50: PC3 cells. It counts as cell-based, human. Summed up:
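Resazurin-based fluorescence (540 nm ex/590 nm em) measured after 4-day compound treatment plus 24 hrs dye incubation at 37° C. Cells plated at 4.5×10^3 cells/ml, adhered 24 hr first. pIC50 from probit-derived IC50 on % viable cells versus untreated, triplicate wells.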
(In general: Resazurin is reduced to fluorescent resorufin, in cell work by metabolically active cells.)

For another test, the system named is PC3 cells. The experiment in a line: EB1 Comet (microtubule disruption) assay. It counts as cell-based, human. The settings on record: 1 hour treatment; for minimal effective concentration: Homo sapiens, PC-3, 1 h, read-out: EB1 pLAC (converted). Summed up:
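Readout is loss of Eb1 plus-end foci, scored by immunofluorescence microscopy, in PC3 cells after 1 h compound treatment at 37 °C with 0.6% final DMSO. LAC is defined as the lowest concentration leaving at least 50% of cells without Eb1 foci.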

For the compound `Cc1cc2ccc(C(C)(C#N)C3CCc4c(C#N)cccc43)cc2[nH]c1=O` (racemic) [Compound 393], the IC50 in the test with PC-3 cells was 10000 nM. Further, the minimal effective concentration with PC3 cells is 10 µM.
Consider `CCc1cc2ccc([C@@](C)(C#N)CN(C)Cc3ccc(C#N)cc3)cc2[nH]c1=O` (single isomer, unassigned) [Compound 253], for which the IC50 in the test on PC-3 cells was 158 nM. In the test on PC3 cells, the minimal effective concentration was 0.1 µM.
Regarding `CCc1cc2ccc(C(C)(C#N)C3CCc4ccc(Br)cc43)cc2[nH]c1=O` (single isomer, unassigned) [Compound 380], in the test on PC-3 cells, the “PC3 antiproliferative activity pIC50” value came to 5.5. Also, the “EB1 pLAC” value in the test with PC3 cells was 6.
Turning to `CCc1cc2ccc(C(C)(C#N)C3CCc4ccc(Br)cc43)cc2[nH]c1=O` (single isomer, unassigned) [Compound 381], the “PC3 antiproliferative activity pIC50” value in the test on PC-3 cells was determined as 7.0. Also, the “EB1 pLAC” value with PC3 cells is reported as 7.
For the compound `Cc1cc2ccc([C@](C)(C#N)C3CCc4cccnc43)cc2[nH]c1=O` (single isomer, unassigned) [Compound 388], in the test with PC-3 cells, the IC50 was 10000 nM. In addition, the minimal effective concentration with PC3 cells is greater than 10 µM.
For the compound `CCc1cc2ccc([C@](C)(C#N)[C@H]3CCOc4ccccc43)cc2[nH]c1=O` (single isomer, unassigned) [Compound 394], the IC50 in the test on PC-3 cells is 10000 nM. Moreover, in the test with PC3 cells, the minimal effective concentration was 3.16 µM.
Consider `CCc1cc2ccc([C@@](C)(C#N)[C@H]3CCOc4ccccc43)cc2[nH]c1=O` (single isomer, unassigned) [Compound 395], for which the IC50 in the test on PC-3 cells was 794 nM. Moreover, the minimal effective concentration in the test with PC3 cells was 0.316 µM.
As to `CCc1cc2ccc([C@](C)(C#N)C[C@H]3CCc4ccccc4O3)cc2[nH]c1=O` (single isomer, unassigned) [Compound 396], the IC50 in the test with PC-3 cells was 7940 nM.
As for `CCc1cc2ccc(C(C)(C#N)Cc3cccc(-c4cnn(C)c4)c3)cc2[nH]c1=O` (stereo not drawn) [Compound 17], the IC50 in the test with PC-3 cells is 10000 nM. The minimal effective concentration in the test with PC3 cells was 3.16 µM.
For `CCc1cc2ccc(C(C)(C#N)Cc3cccc(-c4ccccc4)c3)cc2[nH]c1=O` (stereo not drawn) [Compound 18], in that order: 1260 nM and 1 µM.
Consider `CCc1cc2ccc(C(C)(C#N)Cc3cccc(I)c3)cc2[nH]c1=O` (stereo not drawn) [Compound 19], for which the IC50 in the test with PC-3 cells is 158 nM. Further, in the test on PC3 cells, the minimal effective concentration was 0.316 µM.
On to `CCc1cc2ccc(C(C)(C#N)Cc3cccc(N(C)C)c3)cc2[nH]c1=O` (stereo not drawn) [Compound 20], for which the IC50 with PC-3 cells is 200 nM. The minimal effective concentration in the test on PC3 cells was 0.1 µM.
For the compound `CCc1cc2ccc(C(C)(C#N)Cc3cccc(N4CCOCC4)c3)cc2[nH]c1=O` (stereo not drawn) [Compound 21], the IC50 in the test on PC-3 cells is 2000 nM. The minimal effective concentration in the test with PC3 cells is 1 µM.
As for `CCc1cc2ccc(C(C)(C#N)Cc3cccc(O)c3)cc2[nH]c1=O` (stereo not drawn) [Compound 22], in the test on PC-3 cells, the IC50 is 7940 nM.
Take `CCc1cc2ccc(C(C)(C#N)Cc3cccc(OCc4ccccc4)c3)cc2[nH]c1=O` (stereo not drawn) [Compound 23]: the IC50 with PC-3 cells was 5010 nM. Also, in the test on PC3 cells, the minimal effective concentration was 10 µM.
Turning to `CCc1cc2ccc(C(C)(C#N)Cc3cccc(OCCOC)c3)cc2[nH]c1=O` (stereo not drawn) [Compound 24], in the test with PC-3 cells, the IC50 was 1000 nM. Moreover, the minimal effective concentration in the test on PC3 cells was 1 µM.
On to `CCC(=O)c1cccc(CC(C)(C#N)c2ccc3cc(C)c(=O)[nH]c3c2)c1` (stereo not drawn) [Compound 173], for which the IC50 with PC-3 cells is 398 nM. In the test on PC3 cells, the minimal effective concentration was 0.316 µM.
Take `CCc1cc2ccc(C(C)(C#N)Cc3cc(C)cc(C#N)c3)cc2[nH]c1=O` (stereo not drawn) [Compound 174]: the IC50 with PC-3 cells is 200 nM. For the same compound, the minimal effective concentration in the test on PC3 cells was 0.1 µM.
For the compound `CCc1cc2ccc(C(C)(C#N)Cc3cccc(S(F)(F)(F)(F)F)c3)cc2[nH]c1=O` (stereo not drawn) [Compound 177], the IC50 with PC-3 cells was 3160 nM. Besides, in the test on PC3 cells, the minimal effective concentration was 1 µM.
Regarding `CCc1cc2ccc(C(C)(C#N)Cc3cccc(C4(N)CC4)c3)cc2[nH]c1=O` (stereo not drawn) [Compound 180], the IC50 in the test with PC-3 cells was 3160 nM. The minimal effective concentration in the test on PC3 cells is 3.16 µM.
As to `CCc1cc2ccc(C(C)(C#N)CCCN(C)C(=O)c3ccc(F)cc3)cc2[nH]c1=O` (stereo not drawn) [Compound 188], the IC50 in the test with PC-3 cells is 2510 nM. Further, the minimal effective concentration in the test with PC3 cells was 1 µM.
For the compound `CCc1cc2ccc([C@](C)(C#N)CN(C)Cc3ccc(C#N)cc3)cc2[nH]c1=O` [Compound 190], the IC50 in the test on PC-3 cells was 10000 nM. Also, the minimal effective concentration with PC3 cells was 10 µM.
For `Cc1cc2ccc(C(C)(C#N)Cc3cccc(Oc4ncccn4)c3)cc2[nH]c1=O` (stereo not drawn) [Compound 191], in that order: 501 nM and 0.316 µM.
For `Cc1cc2ccc(C(C)(C#N)Cc3cccc(Oc4ccccc4)n3)cc2[nH]c1=O` (stereo not drawn) [Compound 193], the IC50 with PC-3 cells was 631 nM. Besides, the minimal effective concentration in the test on PC3 cells is 0.1 µM.
Regarding `CCc1cc2cc(C)c(C(C)(C#N)Cc3cccc(C#N)n3)cc2[nH]c1=O` (stereo not drawn) [Compound 208], in the test with PC-3 cells, the IC50 is 10000 nM.
For `CCc1cc2ccc(C(C)(C#N)Cc3ccc(Cl)nc3Cl)cc2[nH]c1=O` (stereo not drawn) [Compound 212], the IC50 in the test with PC-3 cells was 5010 nM.
For `COc1cc2ccc(C(C)(C#N)Cc3cccc(C#N)n3)cc2[nH]c1=O` (stereo not drawn) [Compound 218], the IC50 with PC-3 cells is 1260 nM. Further, in the test with PC3 cells, the minimal effective concentration was 0.316 µM.
In the same order, the values of `CCc1cnc(OCCC(C)(C#N)c2ccc3cc(CC)c(=O)[nH]c3c2)nc1` (stereo not drawn) [Compound 222] are 3980 nM and 10 µM.
In the same order, the values of `CCc1cc2ccc(C(C)(C#N)CCOc3nccc(OC)n3)cc2[nH]c1=O` (stereo not drawn) [Compound 223] are 6310 nM and 1 µM.
In the case of `CCc1cc2ccc(C(C)(C#N)Cc3ccc(OC)nc3Cl)cc2[nH]c1=O` (stereo not drawn) [Compound 224], the IC50 with PC-3 cells is 3160 nM. The minimal effective concentration in the test on PC3 cells was 0.316 µM.
Regarding `CCc1cc2ccc(C(C)(C#N)Cc3ccc(Cl)nc3OC)cc2[nH]c1=O` (stereo not drawn) [Compound 225], the IC50 in the test with PC-3 cells is 794 nM. The minimal effective concentration in the test on PC3 cells is 1 µM.
Turning to `CCc1cc2ccc(C(C)(C#N)Cc3cccc(N4CCCC4)n3)cc2[nH]c1=O` (stereo not drawn) [Compound 226], in the test on PC-3 cells, the IC50 is 1580 nM. For the same compound, in the test with PC3 cells, the minimal effective concentration was 3.16 µM.
On to `Cc1cc2ccc(C(C)(C#N)Cc3cccc(C#N)n3)cc2[nH]c1=O` (stereo not drawn) [Compound 227], for which the IC50 in the test on PC-3 cells is 631 nM. For the same compound, the minimal effective concentration in the test with PC3 cells is 1 µM.
Take `CCc1cc2ccc(C(C)(C#N)Cc3cc(OC)cc(OC)n3)cc2[nH]c1=O` (stereo not drawn) [Compound 232]: in the test with PC-3 cells, the IC50 is 251 nM. In addition, the minimal effective concentration with PC3 cells is 0.1 µM.
In the same order, the values of `CCc1cc2ccc(C(C)(C#N)Cc3cc(C#N)cc4c3OCC4)cc2[nH]c1=O` (stereo not drawn) [Compound 236] are 501 nM and 0.316 µM.
As to `CCc1cc2ccc(C(C)(C#N)Cc3cc4ccccc4nn3)cc2[nH]c1=O` (stereo not drawn) [Compound 238], the IC50 with PC-3 cells was 3980 nM. The minimal effective concentration in the test on PC3 cells was 1 µM.
In the case of `Cc1cc2ccc([C@@](C)(C#N)[C@@H]3CCc4cc(Br)ccc43)cc2[nH]c1=O` [Compound 240], the IC50 with PC-3 cells was 10000 nM. Moreover, the minimal effective concentration in the test on PC3 cells was greater than 10 µM.
Regarding `Cc1cc2ccc([C@@](C)(C#N)[C@H]3CCc4cc(Br)ccc43)cc2[nH]c1=O` [Compound 241], in the test on PC-3 cells, the IC50 is 794 nM. Moreover, in the test on PC3 cells, the minimal effective concentration is 0.316 µM.
As to `Cc1cc2ccc([C@](C)(C#N)[C@@H]3CCc4cc(Br)ccc43)cc2[nH]c1=O` [Compound 242], in the test on PC-3 cells, the IC50 is 79.4 nM. For the same compound, the minimal effective concentration with PC3 cells was 0.1 µM.
In the case of `Cc1cc2ccc(C(C)(C#N)C3CCc4cc(Br)ccc43)cc2[nH]c1=O` (stereo not drawn) [Compound 244], in the test on PC-3 cells, the “PC3 antiproliferative activity pIC50” value stood at 6.6. Also, the “EB1 pLAC” value in the test with PC3 cells came out at 7.
With `Cc1cc2ccc(C(C)(C#N)C3CCc4c(Br)cccc43)cc2[nH]c1=O` (stereo not drawn) [Compound 248], in the test on PC-3 cells, the IC50 was 794 nM. Further, the minimal effective concentration in the test on PC3 cells was 0.316 µM.
`Cc1cc2ccc(C(C)(C#N)C3CCc4ccc(Br)cc43)cc2[nH]c1=O` (stereo not drawn) [Compound 249]: the IC50 with PC-3 cells was 251 nM. Further, the minimal effective concentration in the test with PC3 cells is 0.178 µM.
In the case of `Cc1cc2ccc(C(C)(C#N)C3CCc4ccc(C#N)cc43)cc2[nH]c1=O` (stereo not drawn) [Compound 250], the IC50 with PC-3 cells was 316 nM. For the same compound, the minimal effective concentration with PC3 cells is 0.316 µM.
Take `C=C(C)c1cccc(CC(C)(C#N)c2ccc3cc(CC)c(=O)[nH]c3c2)c1` (stereo not drawn) [Compound 254]: the IC50 in the test with PC-3 cells was 794 nM. The minimal effective concentration with PC3 cells is 1 µM.
Turning to `CCc1cc2ccc(C(C)(C#N)Cc3cc(C)nc(C#N)c3)cc2[nH]c1=O` (stereo not drawn) [Compound 328], the IC50 in the test with PC-3 cells was 1260 nM.
As to `CCc1cc2ccc(C(C)(C#N)Cc3ccnc(F)c3)cc2[nH]c1=O` (stereo not drawn) [Compound 330], the IC50 in the test with PC-3 cells was 10000 nM.
`CCc1cc2ccc(C(C)(C#N)CN3CCN(c4ncc(Br)cn4)CC3)cc2[nH]c1=O` (stereo not drawn) [Compound 374]: the IC50 in the test on PC-3 cells is 794 nM.
Same read-out and setting: the result for `Cc1cc2ccc([C@@](C)(C#N)[C@@H]3CCCc4ccccc43)cc2[nH]c1=O` [Compound 382] reads 10000 nM.
On to `CCc1cc2ccc(C(C#N)(CC)Cc3cccc(CN)c3)cc2[nH]c1=O` (stereo not drawn) [Compound 390], for which the IC50 in the test on PC-3 cells is 2510 nM.
The same measure, in the same setting: the result for `CCc1cc2ccc(C(C#N)(CC)C3CCc4ccc(OC)cc43)cc2[nH]c1=O` (stereo not drawn) [Compound 403] reads 316 nM; that for `Cc1cc2ccc([C@@](C)(C#N)[C@H]3CCc4ccc(Br)cc43)cc2[nH]c1=O` [Compound 405], 79.4 nM; that for `Cc1cc2ccc([C@](C)(C#N)[C@@H]3CCc4ccc(Br)cc43)cc2[nH]c1=O` [Compound 406], 10000 nM.
As to `Cc1cc2ccc([C@](C)(C#N)[C@H]3CCc4ccc(Br)cc43)cc2[nH]c1=O` [Compound 407], the IC50 in the test on PC-3 cells is 1260 nM.
